Reference: patent US7259004B1, “Endophytic streptomycetes from higher plants with biological activity” (Montana State University, priority 2002, dated 2007)

System: M. tuberculosis MDR-P (drug resistant)
Assay: microbe, parasite or virus in culture
Format: cell-based, Mycobacterium tuberculosis
Conditions: for IC50 M. tuberculosis MDR-P (drug resistant): 7H11 agar with 10% OADC

Compound | IC50 (Mycobacterium tuberculosis, read-out: IC50 M. tuberculosis MDR-P (drug resistant)) | IC50 M. tuberculosis MDR-P (drug resistant)
CO[C@H]1/C=C/O[C@@]2(C)Oc3c(C)c(O)c4c(O)c(c(/C=N/N5CCN(C)CC5)c(O)c4c3C2=O)NC(=O)/C(C)=C\C=C\[C@H](C)[C@H](O)[C@@H](C)[C@@H](O)[C@@H](C)[C@H](OC(C)=O)[C@@H]1C [Rifampicin, reference compound] | > 150 µg/mL | –
munumbicin B | – | 10 micrograms/ml
munumbicin C | – | >125 micrograms/ml
